Test results published in patent US20150368248A1, “2-SUBSTITUTED-6-BIARYLMETHYLAMINO-9-CYCLOPENTYL-9H-PURINE DERIVATIVES, USE THEREOF AS MEDICAMENTS, AND PHARMACEUTICAL COMPOSITIONS” (UNIVERZITA PALACKEHO V OLOMOUCI, priority 2013, published 2015).

Columns and labels:
[1] = system: caspase-3/7 activity in PLC/PRF/5 cell line; experiment: One-step cellular caspase-3/7 activity assay; format: cell-based, human; conditions: 24 hours incubation, relative to 0 nM = 1.00
How it was run: (§1)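 Hep3B or PLC/PRF/5 cells, plated overnight, were exposed to compounds for 24 h. Lysis buffer containing 150 μM Ac-DEVD-AMC substrate was added, and plates were incubated at 37° C. Caspase-3/7 activity was read as AMC fluorescence (ex 346/em 442 nm) after 6 h.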

[2] = system: caspase-3/7 activity in Hep3B cell line; experiment: One-step cellular caspase-3/7 activity assay; format: cell-based, human; conditions: 24 hours, 0 nM = 1.00
How it was run: as §1

[3] = system: p53-regulated transcription in Arn8 cells; experiment: p53-dependent transcriptional activity, β-galactosidase reporter; format: cell-based; conditions: 24 h incubation
How it was run: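 Arn8 melanoma cells stably carrying the p53-responsive pRGCAfoslacZ reporter, exposed to compounds for 24 h. Cells permeabilised with 0.3% Triton X-100 for 15 min, then given 80 μM 4-methylumbelliferyl-β-D-galactopyranoside. β-Galactosidase product fluorescence read after 1 h at 355/460 nm.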

HepG2 = experiment: MTT cytotoxicity assay (Example 30); format: cell-based; conditions: Homo sapiens, HepG2, 72 h; MTT, three days after drug addition; read-out: Inhibitory concentration IC50, HepG2
How it was run: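 HepG2 cells in EMEM with 10% FBS, seeded at 10000 per well, dosed next day in triplicate at various concentrations. Three days later MTT added for 4 h; formazan dissolved in DMSO and absorbance read at 570 nm.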

HCC-1.2 (3p) = experiment: MTT cytotoxicity assay (Example 30); format: cell-based; conditions: Homo sapiens, HCC-1.2, 72 h; MTT, three days after drug addition; read-out: Inhibitory concentration IC50, 3p
PLC/PRF/5 = experiment: MTT cytotoxicity assay (Example 30); format: cell-based; conditions: Homo sapiens, PLC-PRF-5, 72 h; MTT, three days after drug addition; read-out: Inhibitory concentration IC50, PLC/PRF/5
HCC-1.1 (3sp) = experiment: MTT cytotoxicity assay (Example 30); format: cell-based; conditions: Homo sapiens, 72 h; MTT, three days after drug addition; read-out: Inhibitory concentration IC50, 3sp
HUH-7 = experiment: MTT cytotoxicity assay (Example 30); format: cell-based; conditions: Homo sapiens, Huh-7, 72 h; MTT, three days after drug addition; read-out: Inhibitory concentration IC50, HUH-7

SMILES	Relative caspase-3/7 activity in PLC/PRF/5 cell line ([1]; compound concentration 40 nM)	Relative caspase-3/7 activity in PLC/PRF/5 cell line ([1]; compound concentration 80 nM)	Relative caspase-3/7 activity in PLC/PRF/5 cell line ([1]; compound concentration 160 nM)	Relative caspase-3/7 activity in PLC/PRF/5 cell line ([1]; compound concentration 320 nM)	Relative caspase-3/7 activity in PLC/PRF/5 cell line ([1]; compound concentration 640 nM)	Relative caspase-3/7 activity in PLC/PRF/5 cell line ([1]; compound concentration 1280 nM)	Relative caspase-3/7 activity in Hep3B cell line ([2]; 200 nM)	Relative caspase-3/7 activity in Hep3B cell line ([2]; 400 nM)	Relative caspase-3/7 activity in Hep3B cell line ([2]; 800 nM)	Relative caspase-3/7 activity in Hep3B cell line ([2]; 1600 nM)	Concentration of maximum activation [3] [nM]	IC50 (HepG2) [nM]	IC50 (HCC-1.2 (3p)) [nM]	IC50 (PLC/PRF/5) [nM]	IC50 (HCC-1.1 (3sp)) [nM]	IC50 (HUH-7) [nM]	Relative caspase-3/7 activity in Hep3B cell line ([2]; 100 nM)
NC1CCC(Nc2nc(NCc3ccc(-c4ccoc4)cc3)c3ncn(C4CCCC4)c3n2)CC1 (centres unmarked) [BP13, N^2-(4-amino-cyclohexyl)-9-cyclopentyl-N^6-(4-furan-3-yl-benzyl)-9H-purine-2,6-diamine]	0.99	1.37	1.72	2.28	>5.00	>5.00	0.95	1.71	5.65	7.81	970	256	602	76	613	339	–
NC1CCC(Nc2nc(NCc3ccc(-c4ccco4)cc3)c3ncn(C4CCCC4)c3n2)CC1 (centres unmarked) [BP4, N^2-(4-amino-cyclohexyl)-9-cyclopentyl-N^6-(4-furan-2-yl-benzyl)-9H-purine-2,6-diamine]	–	–	0.67	0.61	0.33	0.55	1.12	1.44	5.58	9.25	700	389	802	106	813	355	–
NC1CCC(Nc2nc(NCc3ccc(-c4cccs4)cc3)c3ncn(C4CCCC4)c3n2)CC1 (centres unmarked) [BP2, N^2-(4-amino-cyclohexyl)-9-cyclopentyl-N^6-(4-thiophen-2-yl-benzyl)-9H-purine-2,6-diamine]	1.09	1.14	1.30	2.24	>5.00	>5.00	1.09	1.40	3.73	7.77	930	444	317	105	466	319	–
NC1CCC(Nc2nc(NCc3ccc(-c4ccco4)nc3)c3ncn(C4CCCC4)c3n2)CC1 (centres unmarked) [BP14, N^2-(4-amino-cyclohexyl)-9-cyclopentyl-N^6-(6-furan-2-yl-pyridin-3-ylmethyl)-9H-purine-2,6-diamine]	1.99	2.86	>5.00	>5.00	>5.00	>5.00	3.60	6.55	9.00	9.50	137	211	410	7	513	373	0.99
Nc1ccccc1-c1ccc(CNc2nc(NC3CCC(N)CC3)nc3c2ncn3C2CCCC2)cn1 (centres unmarked) [BP22, N^2-(4-amino-cyclohexyl)-9-cyclopentyl-N^6-[6-(2-amino-phenyl)-pyridin-3-ylmethyl]-9H-purine-2,6-diamine]	–	–	0.72	1.08	1.92	3.50	0.81	0.80	0.81	1.18	373	> 1000	436	280	516	642	–
NC1CCC(Nc2nc(NCc3ccc(-c4cccs4)nc3)c3ncn(C4CCCC4)c3n2)CC1 (centres unmarked) [BP30, N^2-(4-amino-cyclohexyl)-9-cyclopentyl-N^6-(6-thiophen-2-yl-pyridin-3-ylmethyl)-9H-purine-2,6-diamine]	2.46	3.93	>5.00	>5.00	>5.00	>5.00	5.32	8.08	9.00	9.43	120	206	205	15	476	184	2.99
NC1CCC(Nc2nc(NCc3ccc(-n4cccn4)cc3)c3ncn(C4CCCC4)c3n2)CC1 (centres unmarked) [BP24, N^2-(4-amino-cyclohexyl)-9-cyclopentyl-N^6-(4-pyrazol-1-yl-benzyl)-9H-purine-2,6-diamine]	2.01	2.59	>5.00	>5.00	>5.00	>5.00	6.18	6.81	9.80	9.65	260	142	169	12	339	177	1.98
NC1CCC(Nc2nc(NCc3ccc(-c4ccsc4)cc3)c3ncn(C4CCCC4)c3n2)CC1 (centres unmarked) [BP5, N^2-(4-amino-cyclohexyl)-9-cyclopentyl-N^6-(4-thiophen-3-yl-benzyl)-9H-purine-2,6-diamine]	0.65	1.07	2.22	3.37	>5.00	>5.00	1.09	1.48	6.65	8.96	961	247	420	60	454	231	–
COc1ccccc1-c1ccc(CNc2nc(NC3CCC(N)CC3)nc3c2ncn3C2CCCC2)cn1 (centres unmarked) [BP18, N^2-(4-amino-cyclohexyl)-9-cyclopentyl-N^6-[6-(2-methoxy-phenyl)-pyridin-3-ylmethyl]-9H-purine-2,6-diamine]	0.97	2.40	>5.00	>5.00	>5.00	>5.00	0.89	3.19	6.05	8.59	510	417	791	22	791	618	–
